# Data reported in patent US7491819B1 (priority 2004, dated 2009).
# Biological target: T1, HIV-integrase (Human immunodeficiency virus type 1 group M subtype B, UniProt P12497)
# T1 construct: Recombinant integrase (0.26 ng) was incubated with the beads
# Assay: HIV-Integrase Inhibition Activity (SPA bead strand-transfer assay)
# Type: biochemical
# Conditions: Table 1; read-out: Activity (HIV-integrase inhibition, IC50 class)
# Method in brief: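 Strand-transfer read-out: CPM from P33-labelled target DNA (0.1 fmol) joined to bead-bound biotin substrate DNA (5 pmole), with EDTA stop at 10 mM final. Integrase (0.26 ng) prebound to streptavidin SPA beads 90 min, 37° C, and washed before adding inhibitor.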
row,Structure (SMILES),IC50 [nM]
1,"COc1ccc(-c2cc(F)ccc2CNC(=O)c2nc3n(c(=O)c2O)CCOC3(C)C)cn1 [Example 77, Pyrimido[2,1-c][1,4]oxazine-2-carboxamide, N-[[4-fluoro-2-(6-methoxy-3-pyridinyl)phenyl]methyl]-4,6,7,9-tetrahydro-3-hydroxy-9,9-dimethyl-4-oxo]",2 to 100
2,"CCOc1cccc(CNC(=O)c2nc3n(c(=O)c2O)CCOC3(C)C)c1 [Example 249, Pyrimido[2,1-c][1,4]oxazine-2-carboxamide, N-[(3-ethoxyphenyl)methyl]-4,6,7,9-tetrahydro-3-hydroxy-9,9-dimethyl-4-oxo-]",2 to 100
3,"CNC(=O)c1cc(F)ccc1CNC(=O)c1nc2n(c(=O)c1O)CCCOC2(C)C [Example 118, 6H-Pyrimido[2,1-c][1,4]oxazepine-2-carboxamide, N-[[4-fluoro-2-[(methylamino)carbonyl]phenyl]methyl]-4,7,8,10-tetrahydro-3-hydroxy-10,10-dimethyl-4-oxo-]",2 to 100
4,"CC1(C)OCCn2c1nc(C(=O)NCc1ccc(F)cc1-c1ccccc1)c(O)c2=O [Example 74, Pyrimido[2,1-c][1,4]oxazine-2-carboxamide, N-[(5-fluoro[1,1′-biphenyl]-2-yl)methyl]-4,6,7,9-tetrahydro-3-hydroxy-9,9-dimethyl-4-oxo-]",2 to 100
5,"CC1(C)OCCn2c1nc(C(=O)NCc1ccccc1-c1ccc(N)nc1)c(O)c2=O [Example 157, Pyrimido[2,1-c][1,4]oxazine-2-carboxamide, N-[[2-(6-amino-3-pyridinyl)phenyl]methyl]-4,6,7,9-tetrahydro-3-hydroxy-9,9-dimethyl-4-oxo-]",2 to 100
6,"CC1(C)OCCn2c1nc(C(=O)NCc1ccc(F)cc1N1C(=O)CC[C@@H]1CN=[N+]=[N-])c(O)c2=O [Example 132, (R)—N-(2-(2-(Azidomethyl)-5-oxopyrrolidin-1-yl)-4-fluorobenzyl)-3-hydroxy-9,9-dimethyl-4-oxo-4,6,7,9-tetrahydropyrimido[2,1-c][1,4]oxazine-2-carboxamide]",2 to 100
7,"C/C(N)=C/C(=O)c1cc(F)ccc1CNC(=O)c1nc2n(c(=O)c1O)CCOC2(C)C [Example 211, Pyrimido[2,1-c][1,4]oxazine-2-carboxamide, N-[[2-[(2Z)-3-amino-1-oxo-2-butenyl]-4-fluorophenyl]methyl]-4,6,7,9-tetrahydro-3-hydroxy-9,9-dimethyl-4-oxo-]",2 to 100
8,"CC1(C)OCCn2c1nc(C(=O)NCc1ccc(N)cc1)c(O)c2=O [Example 256, Pyrimido[2,1-c][1,4]oxazine-2-carboxamide, N-[(4-aminophenyl)methyl]-4,6,7,9-tetrahydro-3-hydroxy-9,9-dimethyl-4-oxo-]",100 to 1000
9,"Cc1ccc(Cl)cc1CNC(=O)c1nc2n(c(=O)c1O)CCOC2(C)C [Example 251, Pyrimido[2,1-c][1,4]oxazine-2-carboxamide, N-[(5-chloro-2-methylphenyl)methyl]-4,6,7,9-tetrahydro-3-hydroxy-9,9-dimethyl-4-oxo-]",2 to 100
10,"CC1(C)OCCCn2c1nc(C(=O)NCc1ccc(F)cc1)c(O)c2=O [Example 44, 6H-Pyrimido[2,1-c][1,4]oxazepine-2-carboxamide, N-[(4-fluorophenyl)methyl]-4,7,8,10-tetrahydro-3-hydroxy-10,10-dimethyl-4-oxo-]",2 to 100
11,"CC1(C)OCCn2c1nc(C(=O)NCc1ccc3c(c1)CCO3)c(O)c2=O [Example 250, Pyrimido[2,1-c][1,4]oxazine-2-carboxamide, N-[(2,3-dihydro-5-benzofuranyl)methyl]-4,6,7,9-tetrahydro-3-hydroxy-9,9-dimethyl-4-oxo-]",2 to 100
12,"COc1ccc(CNC(=O)c2nc3n(c(=O)c2O)CCOC3(C)C)cc1Cl [Example 239, Pyrimido[2,1-c][1,4]oxazine-2-carboxamide, N-[(3-chloro-4-methoxyphenyl)methyl]-4,6,7,9-tetrahydro-3-hydroxy-9,9-dimethyl-4-oxo-]",2 to 100
13,"CC1(C)OCCn2c1nc(C(=O)NCc1ccc(F)cc1O)c(O)c2=O [Example 95, Pyrimido[2,1-c][1,4]oxazine-2-carboxamide, N-[(4-fluoro-2-hydroxyphenyl)methyl]-4,6,7,9-tetrahydro-3-hydroxy-9,9-dimethyl-4-oxo-]",2 to 100
14,"CC1(C)OCCn2c1nc(C(=O)NCc1ccc(F)cc1-n1cnc(C(=O)N3CCOCC3)n1)c(O)c2=O [Example 62, Pyrimido[2,1-c][1,4]oxazine-2-carboxamide, N-[[4-fluoro-2-[3-(4-morpholinylcarbonyl)-1H-1,2,4-triazol-1-yl]phenyl]methyl]-4,6,7,9-tetrahydro-3-hydroxy-9,9-dimethyl-4-oxo-]",2 to 100
15,"CN(C)C(=O)c1ccc(-c2ccccc2CNC(=O)c2nc3n(c(=O)c2O)CCOC3(C)C)cc1 [Example 170, Pyrimido[2,1-c][1,4]oxazine-2-carboxamide, N-[[4′-[(dimethylamino)carbonyl][1,1′-biphenyl]-2-yl]methyl]-4,6,7,9-tetrahydro-3-hydroxy-9,9-dimethyl-4-oxo-]",2 to 100
16,"CC(C)Oc1cccc(CNC(=O)c2nc3n(c(=O)c2O)CCOC3(C)C)c1 [Example 263, Pyrimido[2,1-c][1,4]oxazine-2-carboxamide, 4,6,7,9-tetrahydro-3-hydroxy-9,9-dimethyl-N-[[3-(1-methylethoxy)phenyl]methyl]-4-oxo-]",2 to 100
17,"CC1(C)OCCCn2c1nc(C(=O)NCc1ccc(F)cc1S(C)(=O)=O)c(O)c2=O [Example 202, 6H-Pyrimido[2,1-c][1,4]oxazepine-2-carboxamide, N-[[4-fluoro-2-(methylsulfonyl)phenyl]methyl]-4,7,8,10-tetrahydro-3-hydroxy-10,10-dimethyl-4-oxo-]",2 to 100
18,"CC1(C)OCCn2c1nc(C(=O)NCc1cccc(-n3cccn3)c1)c(O)c2=O [Example 252, Pyrimido[2,1-c][1,4]oxazine-2-carboxamide, 4,6,7,9-tetrahydro-3-hydroxy-9,9-dimethyl-4-oxo-N-[[3-(1H-pyrazol-1-yl)phenyl]methyl]-]",100 to 1000
19,"CC1(C)OCCn2c1nc(C(=O)NCc1ccc(F)cc1N1CCOC1=O)c(O)c2=O [Example 127, N-(4-Fluoro-2-(2-oxooxazolidin-3-yl)benzyl)-3-hydroxy-9,9-dimethyl-4-oxo-4,6,7,9-tetrahydropyrimido[2,1-c][1,4]oxazine-2-carboxamide]",2 to 100
20,"CC1(C)OCCn2c1nc(C(=O)NCc1ccc(F)cc1C#CCS(C)(=O)=O)c(O)c2=O [Example 92, Pyrimido[2,1-c][1,4]oxazine-2-carboxamide, N-[[4-fluoro-2-[3-(methylsulfonyl)-1-propynyl]phenyl]methyl]-4,6,7,9-tetrahydro-3-hydroxy-9,9-dimethyl-4-oxo-]",2 to 100
21,"CC1(C)OCCn2c1nc(C(=O)NCc1ccccc1-c1ccncc1)c(O)c2=O [Example 190, Pyrimido[2,1-c][1,4]oxazine-2-carboxamide, 4,6,7,9-tetrahydro-3-hydroxy-9,9-dimethyl-4-oxo-N-[[2-(4-pyridinyl)phenyl]methyl]-]",2 to 100
22,"CNC(=O)c1cc(F)ccc1CNC(=O)c1nc2n(c(=O)c1O)CCOC2C (centres unmarked) [Example 9, Pyrimido[2,1-c][1,4]oxazine-2-carboxamide, N-[[4-fluoro-2-[(methylamino)carbonyl]phenyl]methyl]-4,6,7,9-tetrahydro-3-hydroxy-9-methyl-4-oxo-]",2 to 100
23,"Cc1ncn(-c2ccc(CNC(=O)c3nc4n(c(=O)c3O)CCOC4(C)C)c(F)c2)n1 [Example 83, Pyrimido[2,1-c][1,4]oxazine-2-carboxamide, N-[[2-fluoro-4-(3-methyl-1H-1,2,4-triazol-1-yl)phenyl]methyl]-4,6,7,9-tetrahydro-3-hydroxy-9,9-dimethyl-4-oxo-]",> 1000
24,"Cc1noc(C)c1-c1ccccc1CNC(=O)c1nc2n(c(=O)c1O)CCOC2(C)C [Example 180, Pyrimido[2,1-c][1,4]oxazine-2-carboxamide, N-[[2-(3,5-dimethyl-4-isoxazolyl)phenyl]methyl]-4,6,7,9-tetrahydro-3-hydroxy-9,9-dimethyl-4-oxo-]",2 to 100
25,"CC1(C)OCCn2c1nc(C(=O)NCc1ccccc1N1C(=O)C=CC1=O)c(O)c2=O [Example 137, N-(2-(2,5-Dioxo-2H-pyrrol-1(5H)-yl)benzyl)-3-hydroxy-9,9-dimethyl-4-oxo-4,6,7,9-tetrahydropyrimido[2,1-c][1,4]oxazine-2-carboxamide]",2 to 100
26,"CC1(C)OCCn2c1nc(C(=O)NCc1ccc(N3CCOCC3)cc1F)c(O)c2=O [Example 24, Pyrimido[2,1-c][1,4]oxazine-2-carboxamide, N-[[2-fluoro-4-(4-morpholinyl)phenyl]methyl]-4,6,7,9-tetrahydro-3-hydroxy-9,9-dimethyl-4-oxo-]",100 to 1000
27,"CC(C)C1OCCn2c1nc(C(=O)NCc1ccc(F)cc1)c(O)c2=O (centres unmarked) [Example 17, Pyrimido[2,1-c][1,4]oxazine-2-carboxamide, N-[(4-fluorophenyl)methyl]-4,6,7,9-tetrahydro-3-hydroxy-9-(1-methylethyl)-4-oxo-]",2 to 100
28,"COP(=O)(OC)c1cc(F)ccc1CNC(=O)c1nc2n(c(=O)c1O)CCOC2(C)C [Example 281, Phosphonic acid, [5-fluoro-2-[[[(4,6,7,9-tetrahydro-3-hydroxy-9,9-dimethyl-4-oxopyrimido[2,1-c][1,4]oxazin-2-yl)carbonyl]amino]methyl]phenyl]-, dimethyl ester]",2 to 100
29,"CC1(C)OCCn2c1nc(C(=O)NCc1ccc(F)cc1-n1cnc(C(=O)NCCO)n1)c(O)c2=O [Example 72, Pyrimido[2,1-c][1,4]oxazine-2-carboxamide, N-[[4-fluoro-2-[3-[[(2-hydroxyethyl)amino]carbonyl]-1H-1,2,4-triazol-1-yl]phenyl]methyl]-4,6,7,9-tetrahydro-3-hydroxy-9,9-dimethyl-4-oxo-]",2 to 100
